According to patent US11168153B2, “Cyclodextrin-based transporter of nucleoside triphosphate transporter across the cell membrane, its preparation and use” (USTAV ORGANICKE CHEMIE A BIOCHEMIE AV CR, V.V.I., priority 2016, dated 2021):

Tested on: HIV
Assay: Testing virostatic activity of adefovir diphosphate 8 in TZM-bl cell culture infected with HIV
Type: cell-based, Human immunodeficiency virus
From the text: The subject of testing was the compound of structure formula 8 (adefovir diphosphate) which is a known (Mulato & Cherrington, 1997) active metabolite—the reverse transcriptase inhibitor—in inhibiting the replication of viral DNA of HIV. In determining activity of […], compound 7 (tenofovir), which is a clinically approved drug used for the treatment of HIV, was used as a standard. […] Then the solution of the complex was removed and the infected cells were overlaid with medium with serum and incubated at 37° C. Parallel control experiments were performed (without infection; infection without active substance; 10 μmol·l^−1 tenofovir 7 throughout incubation; compound 8 without a carrier).

Nc1ncnc2c1ncn2CCOCP(=O)(O)OP(=O)(O)OP(=O)(O)O [Compound 8, adefovir diphosphate]
Virostatic activity compared with tenofovir 7 standard (10 μmol·l−1 complex of compound 8 and transporter 6c in buffer A for 10 minutes, three days of incubation, standard 10 μmol·l−1 tenofovir 7 throughout incubation, FIG. 7): identical with the control experiments where a solution of compound 7 was present in the medium throughout the incubation | Activity relative to drug 7, concluded from the shorter time of application (compound 8 applied using the 6c carrier for 10 min vs compound 7 present throughout incubation): more active than the clinically used drug 7
